According to US20190038624A1 (priority 2017, published 2019):

Columns and labels:
[1] = test system: patient with probable multiple system atrophy; assay type: in vivo, human; details: single MSA patient, oral Nilotinib 200 mg
Source text: A person who presented with inability to walk. The disease started 4 years ago with a slowing of their gait and tremors at rest in both hands. […] They had been experiencing dizziness, dysphagia during the past year, and urinary urgency during the previous six months.
Upon admission, the patient could not walk without assistance and needed intermittent bladder catheterization because of urinary incontinence. […] Informed consent was obtained from the patient and their family before treatment of oral Nilotinib 200 mg […]. The monthly monitoring included a physical and a neurological exam, an electrocardiogram, and complete blood count and chemistry.

[2] = test system: patients with probable MSA; assay type: in vivo, human; details: oral 200 mg daily
Experimental: Five patients fulfilled the consensus criteria for “probable MSA” and received oral Nilotinib 200 mg daily for 24 weeks. Disease progression was monitored every 4 weeks by measuring the patient's motor and non-motor symptoms with the Unified Multiple System Atrophy Rating Scale (UMSARS). Mini Mental State Examination (MMSE) was used to screen for cognitive impairment. […] However, these AEs resolved with continued administration of the drug. […] Furthermore, there was a significant decline of 6.8 and 2.2 points in the UMSARS and UMSARS-II, respectively, compared to baseline (see FIG. 2). MMSE results were normal throughout treatment.

[3] = test system: PD and DLB subjects; details: 24 weeks of treatment with 300 mg Nilotinib; cited from earlier work
[4] = average of five MSA patients, 24 weeks

With `Cc1cn(-c2cc(NC(=O)c3ccc(C)c(Nc4nccc(-c5cccnc5)n4)c3)cc(C(F)(F)F)c2)cn1` [Nilotinib] the “non-motor symptoms (swallowing, constipation, urinary function)” value ([1]; 24 weeks) was “significant improvement of non-motor symptoms”, the “walking ability at the end of the study” value ([1]; 24 weeks, could not walk without assistance upon admission) was “could walk slowly without assistance” and the nonserious adverse events ([1]; 24 weeks, no hospitalization, resolved with continuous use) was “mild skin irritation, dizziness, and mild headache”. For the same compound, the “decrease on the UMSARS compared with baseline” value ([1]; week 24) was 11 points, the “decrease on the UMSARS-II compared with baseline” value ([1]; week 24) was 6 points and the “decline in the UMSARS compared to baseline” value [2, 4] was 6.8 points. For the same compound, the “decline in the UMSARS-II compared to baseline” value [2, 4] was 2.2 points, the “non-motor symptoms (swallowing, constipation, urinary function)” value ([2]; five MSA patients, end of 24 weeks) was “improvement of non-motor symptoms” and the “decline in UPDRS I-IV” value [3] was 11.1 points.
